Results on 8 compounds are retold here after ChEMBL document CHEMBL3045331, “A clubbed quinazolinone and 4-thiazolidinone as potential antimicrobial agents” (2012).

Values after ≈ are worked out from the molar mass of the structure shown.

The first assay relates to Streptococcus pyogenes. In words: Antibacterial activity against Streptococcus pyogenes MTCC-442 after 24 hr by serial broth dilution method. As to conditions: MTCC-442, 24 h. The format is functional. In general terms: Dilution methods test growth across graded concentrations, often in twofold steps.
`COc1ccc(/C=C2\SC(c3ccc(O)cc3)N(NC(=O)c3ccc(-n4c(-c5ccc(C)cc5)nc5ccccc5c4=O)cc3)C2=O)cc1` (centres undefined): the MIC99 (in general, an inhibitory concentration at the 99% level, which refers to growth in some studies and to a panel of isolates in others) was 500 µg/mL (≈ 750 µM).
Still for that read-out and setting: the same measure for `COc1ccc(/C=C2\SC(c3ccc(O)cc3)N(NC(=O)c3ccc(-n4c(-c5ccc(C)cc5)nc5ccccc5c4=O)cc3)C2=O)c(O)c1` (centres undefined): 500 µg/mL (≈ 732 µM); for `COc1ccccc1/C=C1\SC(c2ccc(O)cc2)N(NC(=O)c2ccc(-n3c(-c4ccc(C)cc4)nc4ccccc4c3=O)cc2)C1=O` (centres undefined): 500 µg/mL (≈ 750 µM); for `Cc1ccc(-c2nc3ccccc3c(=O)n2-c2ccc(C(=O)NN3C(=O)/C(=C/c4ccccc4)SC3c3ccc(O)cc3)cc2)cc1` (centres undefined): 100 µg/mL (≈ 157 µM).
Consider `COc1cc(/C=C2\SC(c3ccc(O)cc3)N(NC(=O)c3ccc(-n4c(-c5ccc(C)cc5)nc5ccccc5c4=O)cc3)C2=O)cc(OC)c1OC` (centres undefined), for which the MIC99 was 200 µg/mL (≈ 275 µM).
In the case of `Cc1ccc(-c2nc3ccccc3c(=O)n2-c2ccc(C(=O)NN3C(=O)/C(=C/c4ccc(N(C)C)cc4)SC3c3ccc(O)cc3)cc2)cc1` (centres undefined), the MIC99 is 100 µg/mL (≈ 147 µM).
In turn, `CC1(C)S[C@@H]2[C@H](NC(=O)[C@H](N)c3ccccc3)C(=O)N2[C@H]1C(=O)O` [AMPICILLIN] showed an MIC99 of 100 µg/mL (≈ 286 µM).

Another assay has as its system Staphylococcus aureus. In words: Antibacterial activity against Staphylococcus aureus MTCC-96 after 24 hr by serial broth dilution method. The format is functional. The settings on record: MTCC-96, 24 h.
For the compound `COc1ccc(/C=C2\SC(c3ccc(O)cc3)N(NC(=O)c3ccc(-n4c(-c5ccc(C)cc5)nc5ccccc5c4=O)cc3)C2=O)cc1` (centres undefined), the MIC99 worked out at 500 µg/mL (≈ 750 µM).
Still for that read-out and setting: the same measure for `COc1ccc(/C=C2\SC(c3ccc(O)cc3)N(NC(=O)c3ccc(-n4c(-c5ccc(C)cc5)nc5ccccc5c4=O)cc3)C2=O)c(O)c1` (centres undefined): 250 µg/mL (≈ 366 µM); for `COc1ccccc1/C=C1\SC(c2ccc(O)cc2)N(NC(=O)c2ccc(-n3c(-c4ccc(C)cc4)nc4ccccc4c3=O)cc2)C1=O` (centres undefined): 100 µg/mL (≈ 150 µM).
The same measure, in the same setting: the same measure for `Cc1ccc(-c2nc3ccccc3c(=O)n2-c2ccc(C(=O)NN3C(=O)/C(=C/c4ccccc4)SC3c3ccc(O)cc3)cc2)cc1` (centres undefined): 500 µg/mL (≈ 785 µM); for `COc1cc(/C=C2\SC(c3ccc(O)cc3)N(NC(=O)c3ccc(-n4c(-c5ccc(C)cc5)nc5ccccc5c4=O)cc3)C2=O)cc(OC)c1OC` (centres undefined): 100 µg/mL (≈ 138 µM); for `Cc1ccc(-c2nc3ccccc3c(=O)n2-c2ccc(C(=O)NN3C(=O)/C(=C/c4ccc(N(C)C)cc4)SC3c3ccc(O)cc3)cc2)cc1` (centres undefined): 1000 µg/mL (≈ 1470 µM).
Same read-out and setting: the same measure for `CC1(C)S[C@@H]2[C@H](NC(=O)[C@H](N)c3ccccc3)C(=O)N2[C@H]1C(=O)O` [AMPICILLIN]: 250 µg/mL (≈ 715 µM).

The subject of another assay is Escherichia coli. Put plainly: Antibacterial activity against Escherichia coli MTCC 443 after 24 hr by serial broth dilution method. The format is functional. As to conditions: MTCC 443, 24 h.
The compound `COc1ccc(/C=C2\SC(c3ccc(O)cc3)N(NC(=O)c3ccc(-n4c(-c5ccc(C)cc5)nc5ccccc5c4=O)cc3)C2=O)cc1` (centres undefined) yielded an MIC99 of 100 µg/mL (≈ 150 µM).
In the case of `COc1ccc(/C=C2\SC(c3ccc(O)cc3)N(NC(=O)c3ccc(-n4c(-c5ccc(C)cc5)nc5ccccc5c4=O)cc3)C2=O)c(O)c1` (centres undefined), the MIC99 was found to be 100 µg/mL (≈ 146 µM).
On the same count and under the same terms, the same measure for `COc1ccccc1/C=C1\SC(c2ccc(O)cc2)N(NC(=O)c2ccc(-n3c(-c4ccc(C)cc4)nc4ccccc4c3=O)cc2)C1=O` (centres undefined): 500 µg/mL (≈ 750 µM); for `Cc1ccc(-c2nc3ccccc3c(=O)n2-c2ccc(C(=O)NN3C(=O)/C(=C/c4ccccc4)SC3c3ccc(O)cc3)cc2)cc1` (centres undefined): 200 µg/mL (≈ 314 µM); for `COc1cc(/C=C2\SC(c3ccc(O)cc3)N(NC(=O)c3ccc(-n4c(-c5ccc(C)cc5)nc5ccccc5c4=O)cc3)C2=O)cc(OC)c1OC` (centres undefined): 100 µg/mL (≈ 138 µM).
For `Cc1ccc(-c2nc3ccccc3c(=O)n2-c2ccc(C(=O)NN3C(=O)/C(=C/c4ccc(N(C)C)cc4)SC3c3ccc(O)cc3)cc2)cc1` (centres undefined), the MIC99 came out at 25 µg/mL (≈ 36.8 µM).
Same read-out and setting: the same measure for `CC1(C)S[C@@H]2[C@H](NC(=O)[C@H](N)c3ccccc3)C(=O)N2[C@H]1C(=O)O` [AMPICILLIN]: 100 µg/mL (≈ 286 µM).

The subject of the next assay is Pseudomonas aeruginosa. Put plainly: Antibacterial activity against Pseudomonas aeruginosa MTCC-1688 after 24 hr by serial broth dilution method. Type of assay: functional. As to conditions: MTCC-1688, 24 h.
On to `COc1ccc(/C=C2\SC(c3ccc(O)cc3)N(NC(=O)c3ccc(-n4c(-c5ccc(C)cc5)nc5ccccc5c4=O)cc3)C2=O)cc1` (centres undefined), for which the MIC99 is 500 µg/mL (≈ 750 µM).
Take `COc1ccc(/C=C2\SC(c3ccc(O)cc3)N(NC(=O)c3ccc(-n4c(-c5ccc(C)cc5)nc5ccccc5c4=O)cc3)C2=O)c(O)c1` (centres undefined): the MIC99 was found to be 200 µg/mL (≈ 293 µM).
Consider `COc1ccccc1/C=C1\SC(c2ccc(O)cc2)N(NC(=O)c2ccc(-n3c(-c4ccc(C)cc4)nc4ccccc4c3=O)cc2)C1=O` (centres undefined), for which the MIC99 was 100 µg/mL (≈ 150 µM).
As for `Cc1ccc(-c2nc3ccccc3c(=O)n2-c2ccc(C(=O)NN3C(=O)/C(=C/c4ccccc4)SC3c3ccc(O)cc3)cc2)cc1` (centres undefined), the MIC99 is 500 µg/mL (≈ 785 µM).
`COc1cc(/C=C2\SC(c3ccc(O)cc3)N(NC(=O)c3ccc(-n4c(-c5ccc(C)cc5)nc5ccccc5c4=O)cc3)C2=O)cc(OC)c1OC` (centres undefined) came in with an MIC99 of 100 µg/mL (≈ 138 µM).
`Cc1ccc(-c2nc3ccccc3c(=O)n2-c2ccc(C(=O)NN3C(=O)/C(=C/c4ccc(N(C)C)cc4)SC3c3ccc(O)cc3)cc2)cc1` (centres undefined) registered an MIC99 of 200 µg/mL (≈ 294 µM).
In turn, `CC1(C)S[C@@H]2[C@H](NC(=O)[C@H](N)c3ccccc3)C(=O)N2[C@H]1C(=O)O` [AMPICILLIN] showed an MIC99 of 100 µg/mL (≈ 286 µM).

Another assay concerns Aspergillus clavatus. In words: Antifungal activity against Aspergillus clavatus MTCC 1323 after 48 hr by spot subculture method. The format is functional. As to conditions: MTCC 1323, 48 h.
`COc1ccc(/C=C2\SC(c3ccc(O)cc3)N(NC(=O)c3ccc(-n4c(-c5ccc(C)cc5)nc5ccccc5c4=O)cc3)C2=O)cc1` (centres undefined) had an MIC99 of 100 µg/mL (≈ 150 µM).
Same read-out and setting: for `COc1ccc(/C=C2\SC(c3ccc(O)cc3)N(NC(=O)c3ccc(-n4c(-c5ccc(C)cc5)nc5ccccc5c4=O)cc3)C2=O)c(O)c1` (centres undefined) the value was 500 µg/mL (≈ 732 µM); for `COc1ccccc1/C=C1\SC(c2ccc(O)cc2)N(NC(=O)c2ccc(-n3c(-c4ccc(C)cc4)nc4ccccc4c3=O)cc2)C1=O` (centres undefined), 500 µg/mL (≈ 750 µM).
`Cc1ccc(-c2nc3ccccc3c(=O)n2-c2ccc(C(=O)NN3C(=O)/C(=C/c4ccccc4)SC3c3ccc(O)cc3)cc2)cc1` (centres undefined) had an MIC99 of 1000 µg/mL (≈ 1570 µM).
Same read-out and setting: for `COc1cc(/C=C2\SC(c3ccc(O)cc3)N(NC(=O)c3ccc(-n4c(-c5ccc(C)cc5)nc5ccccc5c4=O)cc3)C2=O)cc(OC)c1OC` (centres undefined) the value was 1000 µg/mL (≈ 1380 µM); for `Cc1ccc(-c2nc3ccccc3c(=O)n2-c2ccc(C(=O)NN3C(=O)/C(=C/c4ccc(N(C)C)cc4)SC3c3ccc(O)cc3)cc2)cc1` (centres undefined), 500 µg/mL (≈ 736 µM); for `COC1=CC(=O)C[C@@H](C)[C@]12Oc1c(Cl)c(OC)cc(OC)c1C2=O` [GRISEOFULVIN], 100 µg/mL (≈ 283 µM).

In a further assay the test system is Aspergillus niger. In words: Antifungal activity against Aspergillus niger MTCC 282 after 48 hr by spot subculture method. Type of assay: functional. The settings on record: MTCC 282, 48 h.
In the case of `COc1ccc(/C=C2\SC(c3ccc(O)cc3)N(NC(=O)c3ccc(-n4c(-c5ccc(C)cc5)nc5ccccc5c4=O)cc3)C2=O)cc1` (centres undefined), the MIC99 amounted to 100 µg/mL (≈ 150 µM).
In turn, `COc1ccc(/C=C2\SC(c3ccc(O)cc3)N(NC(=O)c3ccc(-n4c(-c5ccc(C)cc5)nc5ccccc5c4=O)cc3)C2=O)c(O)c1` (centres undefined) yielded an MIC99 of 1000 µg/mL (≈ 1460 µM).
As to `COc1ccccc1/C=C1\SC(c2ccc(O)cc2)N(NC(=O)c2ccc(-n3c(-c4ccc(C)cc4)nc4ccccc4c3=O)cc2)C1=O` (centres undefined), the MIC99 came out at 500 µg/mL (≈ 750 µM).
The same measure, in the same setting: for `Cc1ccc(-c2nc3ccccc3c(=O)n2-c2ccc(C(=O)NN3C(=O)/C(=C/c4ccccc4)SC3c3ccc(O)cc3)cc2)cc1` (centres undefined) the value was 1000 µg/mL (≈ 1570 µM); for `COc1cc(/C=C2\SC(c3ccc(O)cc3)N(NC(=O)c3ccc(-n4c(-c5ccc(C)cc5)nc5ccccc5c4=O)cc3)C2=O)cc(OC)c1OC` (centres undefined), 100 µg/mL (≈ 138 µM).
`Cc1ccc(-c2nc3ccccc3c(=O)n2-c2ccc(C(=O)NN3C(=O)/C(=C/c4ccc(N(C)C)cc4)SC3c3ccc(O)cc3)cc2)cc1` (centres undefined) came in with an MIC99 of 100 µg/mL (≈ 147 µM).
`COC1=CC(=O)C[C@@H](C)[C@]12Oc1c(Cl)c(OC)cc(OC)c1C2=O` [GRISEOFULVIN] came in with an MIC99 of 100 µg/mL (≈ 283 µM).

The next assay relates to Candida albicans. In words: Antifungal activity against Candida albicans MTCC 227 after 48 hr by spot subculture method. Type of assay: functional. The settings on record: MTCC 227, 48 h.
The compound `COc1ccc(/C=C2\SC(c3ccc(O)cc3)N(NC(=O)c3ccc(-n4c(-c5ccc(C)cc5)nc5ccccc5c4=O)cc3)C2=O)cc1` (centres undefined) yielded an MIC99 of 1000 µg/mL (≈ 1500 µM).
`COc1ccc(/C=C2\SC(c3ccc(O)cc3)N(NC(=O)c3ccc(-n4c(-c5ccc(C)cc5)nc5ccccc5c4=O)cc3)C2=O)c(O)c1` (centres undefined) showed an MIC99 of 500 µg/mL (≈ 732 µM).
For the compound `COc1ccccc1/C=C1\SC(c2ccc(O)cc2)N(NC(=O)c2ccc(-n3c(-c4ccc(C)cc4)nc4ccccc4c3=O)cc2)C1=O` (centres undefined), the MIC99 was determined as 500 µg/mL (≈ 750 µM).
The same measure, in the same setting: the same measure for `Cc1ccc(-c2nc3ccccc3c(=O)n2-c2ccc(C(=O)NN3C(=O)/C(=C/c4ccccc4)SC3c3ccc(O)cc3)cc2)cc1` (centres undefined): 500 µg/mL (≈ 785 µM).
For `COc1cc(/C=C2\SC(c3ccc(O)cc3)N(NC(=O)c3ccc(-n4c(-c5ccc(C)cc5)nc5ccccc5c4=O)cc3)C2=O)cc(OC)c1OC` (centres undefined), the MIC99 is 1000 µg/mL (≈ 1380 µM).
Turning to `Cc1ccc(-c2nc3ccccc3c(=O)n2-c2ccc(C(=O)NN3C(=O)/C(=C/c4ccc(N(C)C)cc4)SC3c3ccc(O)cc3)cc2)cc1` (centres undefined), the MIC99 came out at 1000 µg/mL (≈ 1470 µM).
In turn, `COC1=CC(=O)C[C@@H](C)[C@]12Oc1c(Cl)c(OC)cc(OC)c1C2=O` [GRISEOFULVIN] returned an MIC99 of 500 µg/mL (≈ 1420 µM).
